In US8303999B2, “Natural extract containing xanthohumol, method for the production thereof and products produced therefrom” (Ta-Xan AG, priority 2004, dated 2012):
≈ marks a conversion by molar mass, not a printed value. Read-outs that look alike come from different tables or passages of the source.

Assay: solubility limit of XN in aqueous solution (water)
Format: physicochemical
Conditions: read-out: solubility limit of XN in typical aqueous solutions
Experimental: For producing roasted extract comprising XN a hot aqueous extract of the ground roasted products e.g. of barley, wheat, rye as well as the corresponding malts, coffee beans or cacao beans is prepared. A hop extract comprising XN is added thereto at the beginning of the heating period. The extraction of xanthohumol in the extractions of the roasted products leads to a XN content which is by far higher than the solubility limit of XN in typical aqueous solutions. This amounts to 1.3 mg/l of XN at a water temperature of 23° C. and to 1.1 mg/l of XN at a water temperature of 8° C.

solubility (water temperature of 8° C.): 1.1 µg/mL (≈ 3.1 µM) | solubility (water temperature of 23° C.): 1.3 µg/mL (≈ 3.67 µM)
Compound: COc1cc(O)c(CC=C(C)C)c(O)c1C(=O)/C=C/c1ccc(O)cc1 [XN, xanthohumol]
